Activity calls are given as the source filed them. The calls are words filed in the database; no cut-off is given here.
How the values were obtained:
[1] = molecular target: T1, Son of sevenless homolog 1 (Homo sapiens) (UniProt Q07889); test: Inhibition of SOS1 in overnight serum-starved human BxPC3 cells assessed as reduction in AKT phosphorylation at 40 to 60 uM incubated for 2 hrs by Western blotting analysis
T1 sequence (whole entry): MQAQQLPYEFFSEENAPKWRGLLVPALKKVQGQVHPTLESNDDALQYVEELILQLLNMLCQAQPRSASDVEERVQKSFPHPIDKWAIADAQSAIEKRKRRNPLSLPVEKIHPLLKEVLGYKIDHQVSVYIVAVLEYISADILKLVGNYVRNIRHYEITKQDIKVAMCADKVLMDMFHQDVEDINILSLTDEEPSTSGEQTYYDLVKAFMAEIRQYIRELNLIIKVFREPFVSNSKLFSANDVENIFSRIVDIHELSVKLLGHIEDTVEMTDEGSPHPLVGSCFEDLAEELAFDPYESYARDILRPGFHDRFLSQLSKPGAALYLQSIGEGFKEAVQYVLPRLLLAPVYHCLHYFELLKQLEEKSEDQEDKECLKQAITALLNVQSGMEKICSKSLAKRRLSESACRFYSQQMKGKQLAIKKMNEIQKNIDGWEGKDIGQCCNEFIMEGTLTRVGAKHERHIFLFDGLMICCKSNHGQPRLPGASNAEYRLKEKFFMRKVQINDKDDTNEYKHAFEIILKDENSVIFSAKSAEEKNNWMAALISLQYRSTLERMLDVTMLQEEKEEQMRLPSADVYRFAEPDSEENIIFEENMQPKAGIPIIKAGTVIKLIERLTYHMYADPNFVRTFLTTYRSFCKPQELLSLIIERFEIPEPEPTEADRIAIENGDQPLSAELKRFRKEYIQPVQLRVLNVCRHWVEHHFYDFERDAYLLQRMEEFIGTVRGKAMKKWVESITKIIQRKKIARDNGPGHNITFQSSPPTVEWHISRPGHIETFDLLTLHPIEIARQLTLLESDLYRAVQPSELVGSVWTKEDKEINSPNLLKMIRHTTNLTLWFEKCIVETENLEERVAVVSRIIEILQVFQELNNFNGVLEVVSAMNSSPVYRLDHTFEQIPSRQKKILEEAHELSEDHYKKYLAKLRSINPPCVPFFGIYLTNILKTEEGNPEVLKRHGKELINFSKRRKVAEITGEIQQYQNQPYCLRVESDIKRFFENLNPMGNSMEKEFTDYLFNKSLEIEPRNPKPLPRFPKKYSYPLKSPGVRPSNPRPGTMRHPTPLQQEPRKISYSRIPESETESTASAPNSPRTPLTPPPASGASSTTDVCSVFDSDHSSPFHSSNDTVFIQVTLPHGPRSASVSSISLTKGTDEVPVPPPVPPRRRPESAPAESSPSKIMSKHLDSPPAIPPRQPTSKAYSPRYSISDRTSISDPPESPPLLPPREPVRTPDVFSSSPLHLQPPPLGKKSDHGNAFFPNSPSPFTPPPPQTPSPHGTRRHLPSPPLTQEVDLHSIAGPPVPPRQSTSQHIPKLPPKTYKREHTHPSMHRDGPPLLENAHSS

[2] = test system: BXPC-3; test: Effect on total EGFR protein levels in overnight serum-starved human BxPC3 cells at 40 to 60 uM by Western blotting analysis; type: ADME, cell-based; conditions: bxpc-3, 60 µM
[3] = molecular target: T1, Son of sevenless homolog 1 (Homo sapiens); test: Inhibition of SOS1 in overnight serum-starved human MIAPaCa2 cells assessed as effect on Ras signaling by measuring Pan RAS expression in presence of GTP and KRAS at 20 to 60 uM by Western blotting analysis
[4] = molecular target: T2, Son of sevenless homolog 1 (Mus musculus) (UniProt Q62245); test: Inhibition of SOS1 in overnight serum-starved mouse NIH/3T3 cells assessed as reduction in cell proliferation at 20 to 50 uM incubated for 3 days and measured every 24 hrs by MTS assay
T2 sequence (whole entry): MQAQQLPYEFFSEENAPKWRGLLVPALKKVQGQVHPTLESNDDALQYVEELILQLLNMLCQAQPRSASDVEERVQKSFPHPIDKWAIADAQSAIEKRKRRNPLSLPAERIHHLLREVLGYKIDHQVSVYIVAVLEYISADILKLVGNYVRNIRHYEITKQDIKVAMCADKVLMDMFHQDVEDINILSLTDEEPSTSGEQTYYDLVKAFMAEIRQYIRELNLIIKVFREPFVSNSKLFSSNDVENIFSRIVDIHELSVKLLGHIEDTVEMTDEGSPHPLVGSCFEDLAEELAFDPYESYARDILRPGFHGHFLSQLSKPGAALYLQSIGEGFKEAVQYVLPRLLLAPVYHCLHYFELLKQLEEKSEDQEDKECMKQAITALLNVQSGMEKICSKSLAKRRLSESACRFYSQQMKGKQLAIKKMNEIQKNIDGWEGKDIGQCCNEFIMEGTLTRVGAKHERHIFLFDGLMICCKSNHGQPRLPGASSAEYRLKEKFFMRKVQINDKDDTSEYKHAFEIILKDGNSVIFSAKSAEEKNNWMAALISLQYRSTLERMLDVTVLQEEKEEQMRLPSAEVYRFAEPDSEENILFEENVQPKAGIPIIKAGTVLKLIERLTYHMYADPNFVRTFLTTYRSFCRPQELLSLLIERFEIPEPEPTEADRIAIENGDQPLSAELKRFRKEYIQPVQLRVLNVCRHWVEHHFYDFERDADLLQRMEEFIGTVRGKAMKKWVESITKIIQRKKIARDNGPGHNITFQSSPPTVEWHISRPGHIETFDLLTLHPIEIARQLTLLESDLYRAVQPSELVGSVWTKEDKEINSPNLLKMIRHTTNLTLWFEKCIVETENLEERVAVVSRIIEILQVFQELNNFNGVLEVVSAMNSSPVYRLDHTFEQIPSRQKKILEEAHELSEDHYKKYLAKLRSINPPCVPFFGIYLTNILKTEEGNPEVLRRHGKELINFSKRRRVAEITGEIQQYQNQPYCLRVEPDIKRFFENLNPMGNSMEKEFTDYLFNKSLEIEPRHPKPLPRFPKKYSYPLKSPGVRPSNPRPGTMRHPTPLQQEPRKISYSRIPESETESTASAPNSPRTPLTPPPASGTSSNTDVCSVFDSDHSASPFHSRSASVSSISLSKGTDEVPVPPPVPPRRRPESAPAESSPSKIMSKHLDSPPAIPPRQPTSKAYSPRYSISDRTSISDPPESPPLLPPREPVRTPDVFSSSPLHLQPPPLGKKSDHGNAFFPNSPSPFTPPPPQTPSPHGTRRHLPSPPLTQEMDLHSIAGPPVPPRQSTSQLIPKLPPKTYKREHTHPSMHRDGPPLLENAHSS

[5] = molecular target: T2, Son of sevenless homolog 1 (Mus musculus); test: Inhibition of SOS1 in overnight serum-starved mouse MEF assessed as reduction in cell proliferation at 10 to 40 uM incubated for 3 days by MTS assay; type: cell-based
[6] = molecular target: T2, Son of sevenless homolog 1 (Mus musculus); test: Inhibition of SOS1 in mouse NIH/3T3 cells assessed as reduction in EGFR phosphorylation at 20 to 100 uM pre-incubated for 2 hrs before EGF stimulation for 5 mins by Western blot analysis; type: cell-based

Row | SMILES | inhibition [1] | Activity [2] | inhibition [3] | inhibition [4] | inhibition [5] | inhibition [6]
1 | O=[N+]([O-])c1ccccc1/C=C/C=C1c2ccccc2-c2ccccc21 | Active | Toxic | Active |  |  | 
2 | O=C1Oc2ccccc2C(=O)/C1=C/N1C(=O)/C(=C/c2ccc([N+](=O)[O-])cc2)SC1=S |  |  |  | Active | Active | Active
